The results in this text go back to article PMC3509528, “Preliminary Structure-Activity Relationship on Theonellasterol, a New Chemotype of FXR Antagonist, from the Marine Sponge Theonella swinhoei” (Marine Drugs, 2012).

SMILES strings stand for the structures.

For the test, the target named is T1, FXR (farnesoid-X-receptor; pCMVSPORT-FXR) (Homo sapiens, UniProt Q96RI1).
T1 construct: gene NR1H4; FXR expressed from pCMVSPORT-FXR, co-transfected with pSG5-RXR in HepG2 cells; p(hsp27)TKLUC luciferase reporter (IR1 element), Renilla normalisation
T1 sequence (Q96RI1 1-486): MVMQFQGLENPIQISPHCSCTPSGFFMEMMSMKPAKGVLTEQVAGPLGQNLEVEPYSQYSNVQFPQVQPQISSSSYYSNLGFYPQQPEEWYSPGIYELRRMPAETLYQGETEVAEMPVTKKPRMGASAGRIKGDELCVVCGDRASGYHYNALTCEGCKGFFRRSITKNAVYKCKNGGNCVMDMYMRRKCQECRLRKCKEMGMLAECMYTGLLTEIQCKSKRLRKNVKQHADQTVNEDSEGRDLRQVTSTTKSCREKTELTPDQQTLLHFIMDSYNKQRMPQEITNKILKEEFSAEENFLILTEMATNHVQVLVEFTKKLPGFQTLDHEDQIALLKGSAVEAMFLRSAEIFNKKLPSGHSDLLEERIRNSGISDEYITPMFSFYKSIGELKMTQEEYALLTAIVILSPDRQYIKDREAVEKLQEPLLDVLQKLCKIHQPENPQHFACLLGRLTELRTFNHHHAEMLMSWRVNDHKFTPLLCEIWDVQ
T1 sequence (P19793 1-462 partner): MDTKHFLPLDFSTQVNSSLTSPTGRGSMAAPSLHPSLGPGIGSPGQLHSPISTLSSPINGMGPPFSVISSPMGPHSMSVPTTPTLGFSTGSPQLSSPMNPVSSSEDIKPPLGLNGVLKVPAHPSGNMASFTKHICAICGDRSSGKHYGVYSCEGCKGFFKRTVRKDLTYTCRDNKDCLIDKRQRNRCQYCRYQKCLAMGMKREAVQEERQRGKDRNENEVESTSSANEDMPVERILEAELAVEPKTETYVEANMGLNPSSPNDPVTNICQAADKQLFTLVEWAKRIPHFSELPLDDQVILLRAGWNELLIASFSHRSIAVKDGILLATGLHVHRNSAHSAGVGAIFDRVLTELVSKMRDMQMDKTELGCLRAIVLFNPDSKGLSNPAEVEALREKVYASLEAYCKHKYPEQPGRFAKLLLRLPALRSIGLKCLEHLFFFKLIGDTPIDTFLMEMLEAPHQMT
The test can be described thus: luciferase reporter transactivation assay in transfected HepG2, antagonist mode. The class given is cell-based. Background: A reporter such as luciferase makes a cellular process visible.

Broadly, the EC50 is the concentration giving half of the maximal effect. Consider `C=C1[C@@H](O)CC[C@@]2(C)[C@H]1CCC1=C3CC[C@H]([C@H](C)CC[C@H](CC)C(C)C)[C@@]3(C)CC[C@@H]12` [compound 1, theonellasterol], for which the EC50 is roughly 50 µM.
